The subject of the test is MRSA (NR 46223). The experiment in a line: In vivo survival, MRSA bacteremia with vancomycin co-treatment. Further details: species or system Balb/C mice. The conditions noted are these: 0.5 mg vancomycin i.p. alone (0 mg PA8-G3), two hours prior to infection; 3×10^7 CFU i.v.; PBS 10%. The procedure:
Referring to FIGS. 8A-C, at day 14, only 10% of the PBS treated mice survived, 30% of the vancomycin treated mice survived. […] Statistical analysis of the animal data was conducted using Kaplan-Meier Survival Analysis with a Mantel-Cox (logrank) test.

With `CN[C@H](CC(C)C)C(=O)N[C@H]1C(=O)N[C@@H](CC(N)=O)C(=O)N[C@H]2C(=O)N[C@H]3C(=O)N[C@H](C(=O)N[C@H](C(=O)O)c4cc(O)cc(O)c4-c4cc3ccc4O)[C@H](O)c3ccc(c(Cl)c3)Oc3cc2cc(c3O[C@@H]2O[C@H](CO)[C@@H](O)[C@H](O)[C@H]2O[C@H]2C[C@](C)(N)[C@H](O)[C@H](C)O2)Oc2ccc(cc2Cl)[C@H]1O` [vancomycin, reference compound], the “mice survived at day 14” value was 30%.

(Values after patent US11773157B2, “Compositions and methods for treating and preventing Staphylococcus aureus infections” (priority 2014, dated 2023).)
